In US20210395262A1, “INHIBITORS OF HUMAN IMMUNODEFICIENCY VIRUS REPLICATION” (ViiV HEALTHCARE UK (NO.5) LIMITED, priority 2018, published 2021):

Key:
[1] = Compound cytotoxicity, XTT-based colorimetric assay; type: cell-based; details: human; uninfected MT2 cells, day 4, XTT; read-out: CC50
Method in brief: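 Run under the antiviral-assay protocol but without virus. Viability was read on day 4 and CC50 values were derived from the readout.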

recombinant NL4-3 virus = assay: HIV cell culture assay (antiviral activity, luciferase readout in MT-2 cells); type: cell-based; details: Human immunodeficiency virus 1, NL43, MT2
Method in brief: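 MT-2 cells infected for 4-5 days with NL4-3 reference virus carrying Renilla luciferase in place of part of nef, in presence of serial compound dilutions. Luciferase activity read with live-cell substrate. EC50 derived from median effect equation, slope parameter m.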

## Cn1nc(NS(C)(=O)=O)c2c(Cl)ccc(-n3c([C@H](Cc4cc(F)cc(F)c4)NC(=O)Cn4nc(C(F)F)c5c4C(F)(F)[C@@H]4C[C@H]54)nc4cc(N5CC=CC5)ccc4c3=O)c21 (atropisomer, axis not shown; (P)) [Example 31, N—((S)-1-((3P)-3-(4-chloro-1-methyl-3-(methylsulfonamido)-1H-indazol-7-yl)-7-(2,5-dihydro-1H-pyrrol-1-yl)-4-oxo-3,4-dihydroquinazolin-2-yl)-2-(3,5-difluorophenyl)ethyl)-2-((3bS,4aR)-3-(difluoromethyl)-5,5-difluoro-3b,4,4a,5-tetrahydro-1H-cyclopropa[3,4]cyclopenta[1,2-c]pyrazol-1-yl)acetamide]
[1]
  CC50 at 4 days: > 500 nM
Recombinant NL4-3 virus
  EC50: 0.127 nM

## C[C@@H]1CN(c2ccc3c(=O)n(-c4ccc(Cl)c5c(NS(C)(=O)=O)nn(C)c45)c([C@H](Cc4cc(F)cc(F)c4)NC(=O)Cn4nc(C(F)F)c5c4C(F)(F)[C@@H]4C[C@H]54)nc3c2)C[C@H](C)O1 (atropisomer, axis not shown; (P)) [Example 15, N—((S)-1-((3P)-3-(4-chloro-1-methyl-3-(methylsulfonamido)-1H-indazol-7-yl)-7-((2S,6R)-2,6-dimethylmorpholino)-4-oxo-3,4-dihydroquinazolin-2-yl)-2-(3,5-difluorophenyl)ethyl)-2-((3bS,4aR)-3-(difluoromethyl)-5,5-difluoro-3b,4,4a,5-tetrahydro-1H-cyclopropa[3,4]cyclopenta[1,2-c]pyrazol-1-yl)acetamide]
[1]
  CC50 at 4 days: > 10000 nM
Recombinant NL4-3 virus
  EC50: 0.035 nM

## Cn1nc(NS(C)(=O)=O)c2c(Cl)ccc(-n3c([C@H](Cc4cc(F)cc(F)c4)NC(=O)Cn4nc(C(F)F)c5c4C(F)(F)[C@@H]4C[C@H]54)nc4cc(N5CCCCCC5)ccc4c3=O)c21 (atropisomer, axis not shown; (P)) [Example 2, N—((S)-1-(7-(azepan-1-yl)-(3P)-3-(4-chloro-1-methyl-3-(methylsulfonamido)-1H-indazol-7-yl)-4-oxo-3,4-dihydroquinazolin-2-yl)-2-(3,5-difluorophenyl)ethyl)-2-((3bS,4aR)-3-(difluoromethyl)-5,5-difluoro-3b,4,4a,5-tetrahydro-1H-cyclopropa[3,4]cyclopenta[1,2-c]pyrazol-1-yl)acetamide]
[1]
  CC50 at 4 days: > 500 nM
Recombinant NL4-3 virus
  EC50: 0.243 nM

## C[C@@H]1CN(c2ccc3c(=O)n(-c4ccc(Cl)c5c(NS(C)(=O)=O)nn(CC(F)F)c45)c([C@H](Cc4cc(F)cc(F)c4)NC(=O)Cn4nc(C(F)(F)F)c5ccccc54)nc3c2)C[C@H](C)O1 (atropisomer, axis not shown; (P)) [Example 43, N—((S)-1-((3P)-3-(4-chloro-1-(2,2-difluoroethyl)-3-(methylsulfonamido)-1H-indazol-7-yl)-7-((2S,6R)-2,6-dimethylmorpholino)-4-oxo-3,4-dihydroquinazolin-2-yl)-2-(3,5-difluorophenyl)ethyl)-2-(3-(trifluoromethyl)-1H-indazol-1-yl)acetamide]
[1]
  CC50 at 4 days: > 500 nM
Recombinant NL4-3 virus
  EC50: 1.2 nM

## Cn1nc(NS(C)(=O)=O)c2c(Cl)ccc(-n3c([C@H](Cc4cc(F)cc(F)c4)NC(=O)Cn4nc(C(F)F)c5c4C(F)(F)[C@@H]4C[C@H]54)nc4cc(N5CCC6(CC5)COC6)ccc4c3=O)c21 (atropisomer, axis not shown; (P)) [Example 25, N—((S)-1-((3P)-3-(4-chloro-1-methyl-3-(methylsulfonamido)-1H-indazol-7-yl)-4-oxo-7-(2-oxa-7-azaspiro[3.5]nonan-7-yl)-3,4-dihydroquinazolin-2-yl)-2-(3,5-difluorophenyl)ethyl)-2-((3bS,4aR)-3-(difluoromethyl)-5,5-difluoro-3b,4,4a,5-tetrahydro-1H-cyclopropa[3,4]cyclopenta[1,2-c]pyrazol-1-yl)acetamide]
[1]
  CC50 at 4 days: > 500 nM
Recombinant NL4-3 virus
  EC50: 0.095 nM

## Cn1nc(NS(C)(=O)=O)c2c(Cl)ccc(-n3c([C@H](Cc4cc(F)cc(F)c4)NC(=O)Cn4nc(C(F)F)c5c4C(F)(F)[C@@H]4C[C@H]54)nc4cc(N5CCCOCC5)ccc4c3=O)c21 (atropisomer, axis not shown; (P)) [Example 17, N—((S)-1-((3P)-3-(4-chloro-1-methyl-3-(methylsulfonamido)-1H-indazol-7-yl)-7-(1,4-oxazepan-4-yl)-4-oxo-3,4-dihydroquinazolin-2-yl)-2-(3,5-difluorophenyl)ethyl)-2-((3bS,4aR)-3-(difluoromethyl)-5,5-difluoro-3b,4,4a,5-tetrahydro-1H-cyclopropa[3,4]cyclopenta[1,2-c]pyrazol-1-yl)acetamide]
[1]
  CC50 at 4 days: > 1000 nM
Recombinant NL4-3 virus
  EC50: 0.069 nM

## Cn1nc(NS(C)(=O)=O)c2c(Cl)ccc(-n3c([C@H](Cc4cc(F)cc(F)c4)NC(=O)Cn4nc(C(F)F)c5c4C(F)(F)[C@@H]4C[C@H]54)nc4cc(N5CCC(C)(C)CC5)ccc4c3=O)c21 (atropisomer, axis not shown; (P)) [Example 1, N—((S)-1-((3P)-3-(4-chloro-1-methyl-3-(methylsulfonamido)-1H-indazol-7-yl)-7-(4,4-dimethylpiperidin-1-yl)-4-oxo-3,4-dihydroquinazolin-2-yl)-2-(3,5-difluorophenyl)ethyl)-2-((3bS,4aR)-3-(difluoromethyl)-5,5-difluoro-3b,4,4a,5-tetrahydro-1H-cyclopropa[3,4]cyclopenta[1,2-c]pyrazol-1-yl)acetamide]
[1]
  CC50 at 4 days: > 500 nM
Recombinant NL4-3 virus
  EC50: 0.796 nM

## Cn1nc(NS(C)(=O)=O)c2c(Cl)ccc(-n3c([C@H](Cc4cc(F)cc(F)c4)NC(=O)Cn4nc(C(F)F)c5c4C(F)(F)[C@@H]4C[C@H]54)nc4cc(N5CCCC5)ccc4c3=O)c21 (atropisomer, axis not shown; (P)) [Example 19, N—((S)-1-((3P)-3-(4-chloro-1-methyl-3-(methylsulfonamido)-1H-indazol-7-yl)-4-oxo-7-(pyrrolidin-1-yl)-3,4-dihydroquinazolin-2-yl)-2-(3,5-difluorophenyl)ethyl)-2-((3bS,4aR)-3-(difluoromethyl)-5,5-difluoro-3b,4,4a,5-tetrahydro-1H-cyclopropa[3,4]cyclopenta[1,2-c]pyrazol-1-yl)acetamide]
[1]
  CC50 at 4 days: > 1000 nM
Recombinant NL4-3 virus
  EC50: 0.222 nM

## C[C@@H]1CN(c2ccc3c(=O)n(-c4ccc(Cl)c5c(NS(C)(=O)=O)nn(C)c45)c([C@H](Cc4cc(F)cc(F)c4)NC(=O)Cn4nc(C(F)(F)F)c5c4C(F)(F)[C@@H]4C[C@H]54)nc3c2)C[C@H](C)O1 (atropisomer, axis not shown; (P)) [Example 54, N—((S)-1-((3P)-3-(4-chloro-1-methyl-3-(methylsulfonamido)-1H-indazol-7-yl)-7-((2S,6R)-2,6-dimethylmorpholino)-4-oxo-3,4-dihydroquinazolin-2-yl)-2-(3,5-difluorophenyl)ethyl)-2-((3bS,4aR)-5,5-difluoro-3-(trifluoromethyl)-3b,4,4a,5-tetrahydro-1H-cyclopropa[3,4]cyclopenta[1,2-c]pyrazol-1-yl)acetamide]
[1]
  CC50 at 4 days: > 500 nM
Recombinant NL4-3 virus
  EC50: 0.073 nM

## O=C(Cn1nc(C(F)F)c2c1C(F)(F)[C@@H]1C[C@H]21)N[C@@H](Cc1cc(F)cc(F)c1)c1nc2cc(N3CCOCC3)ccc2c(=O)n1-c1ccc(Cl)c2c(NS(=O)(=O)C3CC3)nn(CC(F)F)c12 (atropisomer, axis not shown; (P)) [Example 9, N—((S)-1-((3P)-3-(4-chloro-3-(cyclopropanesulfonamido)-1-(2,2-difluoroethyl)-1H-indazol-7-yl)-7-morpholino-4-oxo-3,4-dihydroquinazolin-2-yl)-2-(3,5-difluorophenyl)ethyl)-2-((3bS,4aR)-3-(difluoromethyl)-5,5-difluoro-3b,4,4a,5-tetrahydro-1H-cyclopropa[3,4]cyclopenta[1,2-c]pyrazol-1-yl)acetamide]
[1]
  CC50 at 4 days: > 500 nM
Recombinant NL4-3 virus
  EC50: 0.086 nM

## C[C@@H]1CN(c2ccc3c(=O)n(-c4ccc(Cl)c5c(NS(=O)(=O)C6CC6)nn(CC(F)F)c45)c([C@H](Cc4cc(F)cc(F)c4)NC(=O)Cn4nc(C(F)F)cc4C(F)F)nc3c2)C[C@H](C)O1 (atropisomer, axis not shown; (P)) [Example 38, 2-(3,5-bis(difluoromethyl)-1H-pyrazol-1-yl)-N—((S)-1-((3P)-3-(4-chloro-3-(cyclopropanesulfonamido)-1-(2,2-difluoroethyl)-1H-indazol-7-yl)-7-((2S,6R)-2,6-dimethylmorpholino)-4-oxo-3,4-dihydroquinazolin-2-yl)-2-(3,5-difluorophenyl)ethyl)acetamide]
[1]
  CC50 at 4 days: > 1000 nM
Recombinant NL4-3 virus
  EC50: 1.22 nM

## C[C@@H]1CN(c2ccc3c(=O)n(-c4ccc(Cl)c5c(NS(C)(=O)=O)nn(CC(F)F)c45)c([C@H](Cc4cc(F)cc(F)c4)NC(=O)Cn4ccc(C(C)(C)C)n4)nc3c2)C[C@H](C)O1 (atropisomer, axis not shown; (P)) [Example 49, 2-(3-(tert-butyl)-1H-pyrazol-1-yl)-N—((S)-1-((3P)-3-(4-chloro-1-(2,2-difluoroethyl)-3-(methylsulfonamido)-1H-indazol-7-yl)-7-((2S,6R)-2,6-dimethylmorpholino)-4-oxo-3,4-dihydroquinazolin-2-yl)-2-(3,5-difluorophenyl)ethyl)acetamide]
[1]
  CC50 at 4 days: > 500 nM
Recombinant NL4-3 virus
  EC50: 2.7 nM

## CC(C(=O)N[C@@H](Cc1cc(F)cc(F)c1)c1nc2cc(N3C[C@@H](C)O[C@@H](C)C3)ccc2c(=O)n1-c1ccc(Cl)c2c(NS(C)(=O)=O)nn(CC(F)F)c12)n1nc(C(F)(F)F)cc1C1CC1 (some centres unmarked) [Example 55]
[1]
  CC50 at 4 days: > 500 nM
Recombinant NL4-3 virus
  EC50: 4.3 nM
